Experimental data: paper PMC10185354, “MyosinA is a druggable target in the widespread protozoan parasite Toxoplasma gondii” (PLOS Biology, 2023)

What was measured:
TgMyoA (myosinA) [1] = target: T1, TgMyoA (myosinA) (Toxoplasma gondii, UniProt O00934); test: actin-activated ATPase (ADP-Glo) at […] compound; assay type: biochemical
T1 construct: recombinant TgMyoA heavy chain co-expressed with TgMLC1 and TgELC1 in Sf9 cells; with TgMLC1, TgELC1

TgMyoA (myosinA) [2] = target: T1, TgMyoA (myosinA); test: actin-activated ATPase (ADP-Glo) at […] compound; partial inhibition; assay type: biochemical

Structure (SMILES) | actin-activated ATPase (ADP-Glo) at 20 μM compound (TgMyoA (myosinA) [1]) | actin-activated ATPase (ADP-Glo) at 20 μM compound; partial inhibition (TgMyoA (myosinA) [2])
Clc1ccc(C2(NCc3c[nH]nc3-c3cccs3)CC2)cc1 [VEST2] | inhibition of both in vitro ATPase activity and parasite growth were retained when the p-OMe substituent in KNX-002 was replaced | –
Cc1ccc(C2(NCc3c[nH]nc3-c3cccs3)CC2)cc1 [VEST3] | – | partially retained in analogs containing p-Me (VEST3) or m,p-dichloro (VEST4) substituents
Clc1ccc(C2(NCc3c[nH]nc3-c3cccs3)CC2)cc1Cl [VEST4] | – | partially retained in analogs containing p-Me (VEST3) or m,p-dichloro (VEST4) substituents
